Results from ChEMBL document CHEMBL3885861, “Open TG-GATES”.

Species on record: Rattus norvegicus
Experiment: Open TG-GATES - Regimen: Single
Type: toxicity, organism-based, Sprague-Dawley
Parameters: regimen Single, gender Male, age 6 weeks
Conditions: in vivo, iv, 0 mg/kg, route intravenous injection, dose level Control; for APTT / Bas / Eos / Fbg / Hb / Ht / Lym / MCH / MCHC / MCV / Mono / Neu / PT / Plat / RBC / Ret / WBC: tissue Blood; for KIDNEY_L / KIDNEY_R / KIDNEY_TOTAL: tissue Kidney; for LIVER: tissue Liver; for A/G / ALP / ALT / AST / BUN / CRE / Ca / Cl / DBIL / GLC / IP / K / LDH / Na / PL / RALB / TBIL / TC / TG / TP / gamma-GTP: tissue Plasma

## C[C@@H]1C[C@@H]([C@H](O)CC2CC(=O)NC(=O)C2)C(=O)[C@@H](C)C1 [CYCLOHEXIMIDE]
3 h
  TERMINAL_BW: 221.4 g
  APTT: 21.8 s
  Bas: 0%
  Eos: 1%
  Fbg: 315.6 mg/dL
  Hb: 13.1 g/dL
  Ht: 39.2%
  Lym: 75.6%
  MCH: 21.3 pg
  MCHC: 33.3%
  MCV: 64 fL
  Mono: 2.8%
  Neu: 19.4%
  PT: 16.2 s
  Plat: 120.1 x10_4/uL
  RBC: 612.2 x10_4/ul
  Ret: 8.7%
  WBC: 95.6 x10_2/uL
  KIDNEY_L: 1 g
  KIDNEY_R: 1 g
  KIDNEY_TOTAL: 2 g
  LIVER: 10.2 g
  A/G: 1.2
  ALP: 1480.4 IU/L
  ALT: 44.4 IU/L
  AST: 75.4 IU/L
  BUN: 11.4 mg/dL
  CRE: 0.1 mg/dL
  Ca: 10.4 mg/dL
  Cl: 106.8 meq/L
  DBIL: 0.004 mg/dL
  GLC: 187 mg/dL
  IP: 9.1 mg/dL
  K: 4 meq/L
  LDH: 171.8 IU/L
  Na: 141 meq/L
  PL: 130.8 mg/dL
  RALB: 2.9 g/dL
  TBIL: 0.024 mg/dL
  TC: 76.8 mg/dL
  TG: 49.2 mg/dL
  TP: 5.2 g/dL
  gamma-GTP: 1.4 IU/L
6 h
  TERMINAL_BW: 214.4 g
  APTT: 22.6 s
  Bas: 0%
  Eos: 1%
  Fbg: 314.4 mg/dL
  Hb: 13.4 g/dL
  Ht: 39.9%
  Lym: 78.2%
  MCH: 21.4 pg
  MCHC: 33.6%
  MCV: 64 fL
  Mono: 2.8%
  Neu: 17.2%
  PT: 15.5 s
  Plat: 113.8 x10_4/uL
  RBC: 624 x10_4/ul
  Ret: 8.7%
  WBC: 88.7 x10_2/uL
  KIDNEY_L: 1 g
  KIDNEY_R: 1 g
  KIDNEY_TOTAL: 2 g
  LIVER: 9.4 g
  A/G: 1.3
  ALP: 1423 IU/L
  ALT: 38.6 IU/L
  AST: 71.6 IU/L
  BUN: 10 mg/dL
  CRE: 0.1 mg/dL
  Ca: 10.5 mg/dL
  Cl: 107.2 meq/L
  DBIL: 0.002 mg/dL
  GLC: 177 mg/dL
  IP: 9.2 mg/dL
  K: 4.2 meq/L
  LDH: 198.8 IU/L
  Na: 140.8 meq/L
  PL: 139.6 mg/dL
  RALB: 2.9 g/dL
  TBIL: 0.036 mg/dL
  TC: 78.6 mg/dL
  TG: 52 mg/dL
  TP: 5.2 g/dL
  gamma-GTP: 1.2 IU/L
9 h
  TERMINAL_BW: 215.8 g
  APTT: 23.2 s
  Bas: 0%
  Eos: 0.6%
  Fbg: 313.4 mg/dL
  Hb: 12.9 g/dL
  Ht: 38.5%
  Lym: 78.8%
  MCH: 20.8 pg
  MCHC: 33.4%
  MCV: 62.2 fL
  Mono: 2%
  Neu: 17.8%
  PT: 15.8 s
  Plat: 109.2 x10_4/uL
  RBC: 620.6 x10_4/ul
  Ret: 8.1%
  WBC: 65.1 x10_2/uL
  KIDNEY_L: 1 g
  KIDNEY_R: 1 g
  KIDNEY_TOTAL: 2 g
  LIVER: 9 g
  A/G: 1.3
  ALP: 1329.2 IU/L
  ALT: 37.4 IU/L
  AST: 71 IU/L
  BUN: 10 mg/dL
  CRE: 0.1 mg/dL
  Ca: 10.4 mg/dL
  Cl: 106.4 meq/L
  DBIL: 0.002 mg/dL
  GLC: 176 mg/dL
  IP: 9.7 mg/dL
  K: 3.9 meq/L
  LDH: 164.6 IU/L
  Na: 142.4 meq/L
  PL: 125.8 mg/dL
  RALB: 3 g/dL
  TBIL: 0.036 mg/dL
  TC: 72.4 mg/dL
  TG: 37.6 mg/dL
  TP: 5.4 g/dL
  gamma-GTP: 1.4 IU/L
24 h
  TERMINAL_BW: 229.3 g
  APTT: 22.3 s
  Bas: 0%
  Eos: 1%
  Fbg: 319.8 mg/dL
  Hb: 13.5 g/dL
  Ht: 40.3%
  Lym: 80.6%
  MCH: 21 pg
  MCHC: 33.5%
  MCV: 62.5 fL
  Mono: 2.8%
  Neu: 14.6%
  PT: 16 s
  Plat: 119 x10_4/uL
  RBC: 643.8 x10_4/ul
  Ret: 8.7%
  WBC: 90.5 x10_2/uL
  KIDNEY_L: 1 g
  KIDNEY_R: 1 g
  KIDNEY_TOTAL: 2 g
  LIVER: 11 g
  A/G: 1.2
  ALP: 1510.6 IU/L
  ALT: 38.2 IU/L
  AST: 65.8 IU/L
  BUN: 16 mg/dL
  CRE: 0.1 mg/dL
  Ca: 10.8 mg/dL
  Cl: 106 meq/L
  DBIL: 0 mg/dL
  GLC: 202.2 mg/dL
  IP: 7.7 mg/dL
  K: 4.2 meq/L
  LDH: 179.2 IU/L
  Na: 140.4 meq/L
  PL: 142.8 mg/dL
  RALB: 3 g/dL
